1 molecule from patent EP0371837A2, “Process for the synthesis of esters of dithiocarbamic acids by substitution of hydroxylated positions of mono- or polyhydroxylated molecules, products of this process and their uses” (PASTEUR MERIEUX SERUMS ET VACCINS, priority 1988, dated 1990) can be followed below.

Data set [1] in a line: Toxicity of lithium dithiocarbamates (method not described). The conditions noted are these: statement in words, no test described.
Data set [2] can be described thus: Activity of lithium dithiocarbamates (method not described). The conditions noted are these: statement in words, no test described; same applications as the esters (immunomodulator, antiviral).

As for `CCN(CC)C(=S)S` [diéthyldithiocarbamate de lithium, N,N diéthyl dithiocarbamate de lithium], the toxicité result in data set [1] is on record as “peu toxiques”. Further, in data set [2], the activité result is recorded as “très actifs”.
